# Data as given in US20260049071A1, “PROTEIN TYROSINE KINASE INHIBITOR AND MEDICAL USE THEREOF” (BEYANG THERAPEUTICS CO., LTD., priority 2022, published 2026).
# Tests used:
# KDR (VEGFR2) = KDR (VEGFR2) (Homo sapiens (Human), UniProt P35968); assay: Kinase inhibition, Mobility Shift Assay (VEGFR2); type: biochemical
# Description: (§1) This assay directly monitored the ability of compounds to inhibit kinase phosphorylation by measuring non-phosphorylated and phosphorylated substrates in kinase reactions by using Mobility Shift Assays/IMAP™ analysis.
# (§2) Add the kinase and DTT to 1× kinase buffer to form a 2.5× kinase solution; transfer 10 μL of 2.5× kinase solution to a 384-well reaction plate and add 1× kinase buffer to negative control wells. Incubate the plate for 10 min at room temperature; add FAM-labeled peptides, MgCl2, ATP and other reagents to 1× kinase buffer to form a 2.5× substrate solution; transfer 10 μL of the above 2.5× substrate solution to the 384-well reaction plate; incubate the plate at 28° C. for different times, and add 25 μL of stop solution to the 384-well reaction plate to stop the reaction. Read the conversion ratio data on CaliperEZ Reader II. Convert conversion rates into inhibition ratio data.
# (§3) “Min” indicates the readout of the control well without the addition of kinase; and “Max” indicates the readout of the control well with the addition of DMSO. Fit IC50 values with XLFit excel add-in version 5.4.0.8.
# (§4) X indicates the log value of compound concentration, and Y indicates the inhibition ratio (% inhibition).
# FLT1 (VEGFR1) = FLT1 (VEGFR1) (Homo sapiens (Human), UniProt P17948); assay: Kinase inhibition, Mobility Shift Assay (VEGFR1); type: biochemical
# FLT1 (VEGFR1), sequence (P17948 27-1338): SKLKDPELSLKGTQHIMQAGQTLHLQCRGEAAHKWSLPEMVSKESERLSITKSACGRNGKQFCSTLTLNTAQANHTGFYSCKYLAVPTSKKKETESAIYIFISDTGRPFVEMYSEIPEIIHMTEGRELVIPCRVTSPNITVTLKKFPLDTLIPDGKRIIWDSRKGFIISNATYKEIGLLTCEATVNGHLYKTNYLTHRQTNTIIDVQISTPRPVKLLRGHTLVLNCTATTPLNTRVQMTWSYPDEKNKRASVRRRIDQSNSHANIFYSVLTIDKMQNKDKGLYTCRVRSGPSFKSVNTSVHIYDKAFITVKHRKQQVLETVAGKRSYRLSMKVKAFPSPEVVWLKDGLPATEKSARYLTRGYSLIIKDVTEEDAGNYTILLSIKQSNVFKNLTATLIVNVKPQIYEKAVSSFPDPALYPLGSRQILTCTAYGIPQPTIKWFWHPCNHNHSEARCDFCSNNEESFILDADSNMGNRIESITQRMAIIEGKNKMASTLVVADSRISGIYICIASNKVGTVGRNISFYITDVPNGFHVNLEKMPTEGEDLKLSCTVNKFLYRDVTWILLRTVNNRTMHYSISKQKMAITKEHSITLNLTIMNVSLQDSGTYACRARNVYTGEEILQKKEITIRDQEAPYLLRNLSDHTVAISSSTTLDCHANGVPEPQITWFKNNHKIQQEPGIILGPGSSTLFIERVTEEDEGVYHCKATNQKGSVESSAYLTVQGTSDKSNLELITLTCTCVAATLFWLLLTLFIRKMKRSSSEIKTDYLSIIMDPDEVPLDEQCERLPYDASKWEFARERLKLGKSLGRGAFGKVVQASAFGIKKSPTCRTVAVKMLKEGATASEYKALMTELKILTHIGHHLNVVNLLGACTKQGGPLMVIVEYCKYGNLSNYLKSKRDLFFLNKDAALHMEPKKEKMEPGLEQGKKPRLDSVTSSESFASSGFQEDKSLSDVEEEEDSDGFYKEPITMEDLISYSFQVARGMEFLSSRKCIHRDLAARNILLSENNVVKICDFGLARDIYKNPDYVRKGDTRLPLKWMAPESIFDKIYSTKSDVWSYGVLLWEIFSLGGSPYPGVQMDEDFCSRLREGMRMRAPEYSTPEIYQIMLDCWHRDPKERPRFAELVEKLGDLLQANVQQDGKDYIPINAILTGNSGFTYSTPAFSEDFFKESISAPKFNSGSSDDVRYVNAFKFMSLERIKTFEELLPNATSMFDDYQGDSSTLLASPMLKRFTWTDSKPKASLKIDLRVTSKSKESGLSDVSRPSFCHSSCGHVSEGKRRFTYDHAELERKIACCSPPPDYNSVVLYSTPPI
# Description: as §1, §2, §3, §4
# FLT4 (VEGFR3) = FLT4 (VEGFR3) (Homo sapiens (Human), UniProt P35916); assay: Kinase inhibition, Mobility Shift Assay (VEGFR3); type: biochemical
# FLT4 (VEGFR3), sequence (P35916 25-1363): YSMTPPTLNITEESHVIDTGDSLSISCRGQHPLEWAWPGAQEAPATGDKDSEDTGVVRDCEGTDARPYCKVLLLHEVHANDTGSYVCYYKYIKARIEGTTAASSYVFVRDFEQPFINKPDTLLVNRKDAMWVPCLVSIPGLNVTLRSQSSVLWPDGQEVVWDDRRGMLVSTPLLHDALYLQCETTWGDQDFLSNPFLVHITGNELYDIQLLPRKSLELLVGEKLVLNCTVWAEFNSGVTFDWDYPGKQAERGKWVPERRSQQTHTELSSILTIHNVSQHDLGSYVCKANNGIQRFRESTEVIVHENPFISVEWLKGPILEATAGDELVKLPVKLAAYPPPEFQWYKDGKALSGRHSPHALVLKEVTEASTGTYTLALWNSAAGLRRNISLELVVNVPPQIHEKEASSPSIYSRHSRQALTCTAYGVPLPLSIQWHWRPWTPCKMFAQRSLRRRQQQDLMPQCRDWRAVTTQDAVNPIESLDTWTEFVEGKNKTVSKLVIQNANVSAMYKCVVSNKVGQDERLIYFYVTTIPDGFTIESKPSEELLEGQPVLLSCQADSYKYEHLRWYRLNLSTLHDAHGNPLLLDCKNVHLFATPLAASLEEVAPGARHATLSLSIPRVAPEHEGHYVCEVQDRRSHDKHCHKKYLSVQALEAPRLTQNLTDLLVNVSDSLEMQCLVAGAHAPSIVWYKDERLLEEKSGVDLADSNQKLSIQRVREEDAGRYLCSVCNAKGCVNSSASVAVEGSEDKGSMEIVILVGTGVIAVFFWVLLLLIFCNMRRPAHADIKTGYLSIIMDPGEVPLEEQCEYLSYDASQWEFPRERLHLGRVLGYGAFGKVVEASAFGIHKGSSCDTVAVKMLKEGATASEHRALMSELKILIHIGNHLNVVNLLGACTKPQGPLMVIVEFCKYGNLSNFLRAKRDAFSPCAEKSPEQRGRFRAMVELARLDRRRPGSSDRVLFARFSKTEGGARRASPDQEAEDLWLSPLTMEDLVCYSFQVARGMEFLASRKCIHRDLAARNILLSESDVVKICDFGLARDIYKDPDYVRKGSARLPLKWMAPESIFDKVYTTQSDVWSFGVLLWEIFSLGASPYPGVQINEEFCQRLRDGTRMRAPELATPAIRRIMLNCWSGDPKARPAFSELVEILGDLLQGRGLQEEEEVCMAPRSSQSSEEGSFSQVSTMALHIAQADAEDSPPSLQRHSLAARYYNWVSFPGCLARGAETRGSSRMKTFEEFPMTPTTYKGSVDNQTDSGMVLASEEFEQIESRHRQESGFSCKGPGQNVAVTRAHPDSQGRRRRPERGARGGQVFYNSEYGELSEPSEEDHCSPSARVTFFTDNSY
# Description: as §1, §2, §3, §4
# melanin = assay: Binding capacity of compounds to melanin; type: in vitro ADME; conditions: Sepia officinalis (cuttlefish), melanin suspension (1 mg/mL); 1 mg/mL melanin suspension in PBS pH 7.4, 2 μM compound, 2 h at 37° C.; read-out: Fu % (percentage of free drug, not bound to melanin)
# From the text: Pigmented eye tissues contain melanin in intracellular melanosomes. Drugs bind to melanin to varying degrees, ranging from non-binding to extensive binding. Therefore, melanin binding is an important feature that affects drug delivery and biodistribution in the eye. The binding capacity of a compound to the melanin must be considered in the development of ophthalmic drugs.
# Melanin was derived from the melanin of cuttlefish (Sepia officinalis) and was commercially available from Sigma Aldrich (St Louis, MO).
# First, prepare 1 mg/mL melanin suspension with PBS (pH 7.4). As a washing step for the matrix, centrifuge the suspended particles for 5 min at 3000 rpm. Resuspend the resulting particles in a fresh PBS buffer, heat to 37° C. over continuous shaking and incubate it for 1 h. Accurately pipette 2 μL of the test stock solution (0.1 mM) into 98 μL of melanin suspension (1 mg/mL) to achieve a final incubation concentration of 2 μM. Similarly, accurately pipette 2 μL of the stock solution (0.1 mM) to 98 μL of PBS buffer (containing 0.1% BSA) as a blank control sample. Incubate the samples in a shaker (80-90 rpm) for 2 h at 37° C. Then, centrifuge the samples at room temperature. Pipette 50 μL of the supernatant and add 50 μL of precipitant (containing an internal standard). After protein precipitation of all the above samples, centrifuge the samples to collect the supernatants, dilute the supernatants with water (if necessary) and inject them for analysis. At the same time, measure the positive controls, including the high-binding compounds Sunitinib and chloroquine and the low-binding compound celecoxib. Establish an LC-MS/MS method for determining compound concentrations, and calibrate the peak area ratio of analyte/internal standard (Analyte/AIS) in the measured sample by the dilution factor to take it as an alternative concentration for the sample for data processing. The binding rate (Fh) of a compound in melanin was calculated as: […]
# Ctest was the concentration of the compound in the melanin-incubated sample or the peak area ratio of the test compound to the internal standard. Ccontrol was the concentration of the compound in the blank control sample or the peak area ratio of the test compound to the internal standard. Percentage of free drug (Fu %)=100−Fb The binding rates of the compounds of the present invention to melanin are shown in the table below: […]
# EGFR = EGFR (Homo sapiens (Human), UniProt P00533); assay: Kinase inhibition, Mobility Shift Assay (EGFR); type: biochemical
# EGFR, sequence (P00533 25-1210): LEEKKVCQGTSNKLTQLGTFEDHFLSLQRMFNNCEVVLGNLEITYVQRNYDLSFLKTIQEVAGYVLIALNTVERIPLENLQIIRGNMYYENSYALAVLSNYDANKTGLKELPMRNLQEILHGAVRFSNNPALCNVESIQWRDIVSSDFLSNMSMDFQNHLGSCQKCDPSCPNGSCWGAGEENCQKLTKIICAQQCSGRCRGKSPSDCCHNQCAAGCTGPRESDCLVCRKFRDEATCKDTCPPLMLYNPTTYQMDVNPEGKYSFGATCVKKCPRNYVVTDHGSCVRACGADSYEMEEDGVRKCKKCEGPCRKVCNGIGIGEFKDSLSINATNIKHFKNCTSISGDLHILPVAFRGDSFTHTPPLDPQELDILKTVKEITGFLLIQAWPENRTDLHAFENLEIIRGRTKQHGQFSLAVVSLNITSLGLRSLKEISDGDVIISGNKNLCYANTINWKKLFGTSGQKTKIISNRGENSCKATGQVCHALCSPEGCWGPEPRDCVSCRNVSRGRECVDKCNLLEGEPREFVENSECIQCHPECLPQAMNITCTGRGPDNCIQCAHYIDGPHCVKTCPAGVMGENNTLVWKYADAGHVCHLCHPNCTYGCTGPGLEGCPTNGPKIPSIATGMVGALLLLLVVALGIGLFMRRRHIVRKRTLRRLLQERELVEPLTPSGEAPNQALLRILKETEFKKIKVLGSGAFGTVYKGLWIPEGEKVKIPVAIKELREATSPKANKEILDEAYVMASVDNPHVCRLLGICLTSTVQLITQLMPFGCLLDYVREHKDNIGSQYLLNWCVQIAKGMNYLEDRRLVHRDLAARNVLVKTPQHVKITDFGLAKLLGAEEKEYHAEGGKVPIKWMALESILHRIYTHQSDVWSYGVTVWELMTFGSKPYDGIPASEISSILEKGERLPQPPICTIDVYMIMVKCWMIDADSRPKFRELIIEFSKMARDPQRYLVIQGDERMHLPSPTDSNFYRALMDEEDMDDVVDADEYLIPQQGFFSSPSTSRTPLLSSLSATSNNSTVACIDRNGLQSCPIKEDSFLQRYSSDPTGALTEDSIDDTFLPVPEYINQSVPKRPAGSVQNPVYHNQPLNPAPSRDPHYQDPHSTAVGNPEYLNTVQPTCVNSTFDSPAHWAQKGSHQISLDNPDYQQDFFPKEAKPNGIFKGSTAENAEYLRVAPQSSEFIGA
# Description: as §1, §2, §3, §4
# KDR (VEGFR2), sequence (P35968 790-1356): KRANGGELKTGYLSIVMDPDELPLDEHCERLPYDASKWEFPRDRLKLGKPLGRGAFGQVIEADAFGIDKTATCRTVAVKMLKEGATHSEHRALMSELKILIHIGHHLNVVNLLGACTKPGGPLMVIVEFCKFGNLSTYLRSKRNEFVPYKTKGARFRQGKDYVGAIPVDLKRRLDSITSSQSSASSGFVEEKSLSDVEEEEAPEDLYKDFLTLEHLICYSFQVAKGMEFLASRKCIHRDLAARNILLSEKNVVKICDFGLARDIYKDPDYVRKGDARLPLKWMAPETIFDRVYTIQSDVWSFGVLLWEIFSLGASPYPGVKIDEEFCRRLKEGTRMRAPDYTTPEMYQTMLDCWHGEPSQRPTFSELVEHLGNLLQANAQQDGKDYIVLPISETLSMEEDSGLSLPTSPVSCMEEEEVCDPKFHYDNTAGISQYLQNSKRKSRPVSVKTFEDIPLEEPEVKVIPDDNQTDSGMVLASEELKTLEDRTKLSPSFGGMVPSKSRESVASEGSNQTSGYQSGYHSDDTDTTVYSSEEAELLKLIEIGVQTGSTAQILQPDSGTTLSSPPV
SMILES,IC50 (KDR (VEGFR2)),IC50 (FLT1 (VEGFR1)),IC50 (FLT4 (VEGFR3)),"fraction unbound at 2 h, 2 μM (melanin)",IC50 (EGFR)
"CNC(=O)c1ccccc1Sc1ccc2c(/C=C/c3ccc(OCC4CCN(C)C4)cn3)n[nH]c2c1 (stereo not drawn) [Compound I-1, N-methyl-2-({3-[(E)-2-{5-[(1-methylpyrrolidin-3-yl)methoxy]pyridin-2-yl}vinyl]-1H-indazol-6-yl}thio)benzamide]",≤ 1 nM,≤ 1 nM,≤ 1 nM,> 0.05,–
"CNC(=O)c1ccccc1Sc1ccc2c(/C=C/c3ccc(OCCN4CCN(C)CC4)cn3)n[nH]c2c1 [Compound I-4, N-methyl-2-({3-[(E)-2-{5-[2-(4-methylpiperazin-1-yl)ethoxy]pyridin-2-yl}vinyl]-1H-indazol-6-yl}thio)benzamide]",≤ 1 nM,≤ 1 nM,≤ 1 nM,> 0.05,6000 to 60000 nM
"CNC(=O)c1ccccc1Sc1ccc2c(/C=C/c3ccc(OCCC4CCN(C)CC4)cn3)n[nH]c2c1 [Compound I-5, N-methyl-2-({3-[(E)-2-{5-[2-(1-methylpiperidin-4-yl)ethoxy]pyridin-2-yl}vinyl]-1H-indazol-6-yl}thio)benzamide]",≤ 1 nM,≤ 1 nM,≤ 1 nM,0.01 to 0.05,6000 to 60000 nM
"O=C(NC1CC1)c1ccccc1Sc1ccc2c(/C=C/c3ccc(OCCN4CCCC4)cn3)n[nH]c2c1 [Compound I-8, N-cyclopropyl-2-({3-[(E)-2-{5-[2-(pyrrolidin-1-yl)ethoxy]pyridin-2-yl}vinyl]-1H-indazol-6-yl}thio)benzamide]",1 to 10 nM,1 to 10 nM,1 to 10 nM,0.01 to 0.05,6000 to 60000 nM
"CNC(=O)c1ccccc1Sc1ccc2c(/C=C/c3ccn(CCCN4CCCC4)n3)n[nH]c2c1 [Compound I-11, N-methyl-2-({3-[(E)-2-{1-[3-(pyrrolidin-1-yl)propyl]-1H-pyrazole-3-yl}vinyl]-1H-indazol-6-yl}thio)benzamide]",1 to 10 nM,1 to 10 nM,1 to 10 nM,0.01 to 0.05,6000 to 60000 nM
"CNC(=O)c1ccccc1Sc1ccc2c(/C=C/c3ccn(CCN4CCCC4)n3)n[nH]c2c1 [Compound I-13, N-methyl-2-({3-[(E)-2-{1-[2-(pyrrolidin-1-yl)ethyl]-1H-pyrazole-3-yl}vinyl]-1H-indazol-6-yl}thio)benzamide]",1 to 10 nM,1 to 10 nM,≤ 1 nM,0.01 to 0.05,6000 to 60000 nM
"CNC(=O)c1ccccc1Sc1ccc2c(/C=C/c3cccc(OCCN4CCCC4)c3)n[nH]c2c1 [Compound I-15, N-methyl-2-({3-[(E)-2-{3-[2-(pyrrolidin-1-yl)ethoxy]phenyl}vinyl]-1H-indazol-6-yl}thio)benzamide]",1 to 10 nM,1 to 10 nM,1 to 10 nM,0.01 to 0.05,6000 to 60000 nM
"CNC(=O)c1ccccc1Sc1ccc2c(C#Cc3ccc(OCCN4CCCC4)cn3)n[nH]c2c1 [Compound I-16, N-methyl-2-{[3-(2-{5-[2-(pyrrolidin-1-yl)ethoxy]pyridin-2-yl}ethynyl)-1H-indazol-6-yl]thio}benzamide]",1 to 10 nM,1 to 10 nM,1 to 10 nM,< 0.01,6000 to 60000 nM
"CNC(=O)c1ccccc1Sc1ccc2c(/C=C/c3cccc(OCCN4CCCC4)n3)n[nH]c2c1 [Compound I-17, N-methyl-2-({3-[(E)-2-{6-[2-(pyrrolidin-1-yl)ethoxy]pyridin-2-yl}vinyl]-1H-indazol-6-yl}thio)benzamide]",1 to 10 nM,1 to 10 nM,1 to 10 nM,0.01 to 0.05,6000 to 60000 nM
"CNC(=O)c1ccccc1Sc1ccc2c(/C=C/c3ccnc(OCCN4CCCC4)c3)n[nH]c2c1 [Compound I-18, N-methyl-2-({3-[(E)-2-{2-[2-(pyrrolidin-1-yl)ethoxy]pyridin-4-yl}vinyl]-1H-indazol-6-yl}thio)benzamide]",1 to 10 nM,1 to 10 nM,1 to 10 nM,0.01 to 0.05,6000 to 60000 nM
"CNC(=O)c1ccccc1Sc1ccc2c(/C=C/c3ccc(OCCN4CCCC4)nc3)n[nH]c2c1 [Compound I-19, N-methyl-2-({3-[(E)-2-{6-[2-(pyrrolidin-1-yl)ethoxy]pyridin-3-yl}vinyl]-1H-indazol-6-yl}thio)benzamide]",1 to 10 nM,1 to 10 nM,1 to 10 nM,0.01 to 0.05,> 60000 nM
"CNC(=O)c1ccccc1Sc1cnc2c(/C=C/c3ccccn3)n[nH]c2c1 [Compound I-21, N-methyl-2-({3-[(E)-2-(pyridin-2-yl)vinyl]-1H-pyrazolo[4,3-b]pyridin-6-yl}thio)benzamide]",10 to 100 nM,10 to 100 nM,10 to 100 nM,0.01 to 0.05,6000 to 60000 nM
"CNC(=O)c1ccccc1Sc1ccc2c(/C=C/c3cncc(OCCN4CCCC4)c3)n[nH]c2c1 [Compound I-22, N-methyl-2-({3-[(E)-2-{5-[2-(pyrrolidin-1-yl)ethoxy]pyridin-3-yl}vinyl]-1H-indazol-6-yl}thio)benzamide]",10 to 100 nM,10 to 100 nM,10 to 100 nM,0.01 to 0.05,> 60000 nM
"CNC(=O)c1ccccc1Sc1ccc2c(C#Cc3cc(OCCN4CCCC4)ccn3)n[nH]c2c1 [Compound I-23, N-methyl-2-{[3-(2-{4-[2-(pyrrolidin-1-yl)ethoxy]pyridin-2-yl}ethynyl)-1H-indazol-6-yl]thio}benzamide]",10 to 100 nM,10 to 100 nM,> 100 nM,0.01 to 0.05,6000 to 60000 nM
"CNC(=O)c1ccccc1Sc1ccc2c(/C=C/c3ccnn3CCN3CCCC3)n[nH]c2c1 [Compound I-25, N-methyl-2-({3-[(E)-2-{1-[2-(pyrrolidin-1-yl)ethyl]-1H-pyrazole-5-yl}vinyl]-1H-indazol-6-yl}thio)benzamide]",> 100 nM,10 to 100 nM,10 to 100 nM,> 0.05,6000 to 60000 nM
"CNC(=O)c1ccccc1Sc1ccc2c(Nc3ccc(OCCN4CCCC4)cn3)n[nH]c2c1 [Compound I-30, N-methyl-2-{[3-({5-[2-(pyrrolidin-1-yl)ethoxy]pyridin-2-yl}amino)-1H-indazol-6-yl]thio}benzamide]",> 100 nM,> 100 nM,> 100 nM,–,6000 to 60000 nM
"O=C(NC1CC1)c1cc(F)ccc1Sc1ccc2c(/C=C/c3cc(CCCN4CCCC4)ccn3)n[nH]c2c1 [Compound I-119, N-cyclopropyl-5-fluoro-2-({3-[(E)-2-{4-[3-(pyrrolidin-1-yl)propyl]pyridin-2-yl}vinyl]-1H-indazol-6-yl}thio)benzamide]",≤ 1 nM,1 to 10 nM,10 to 100 nM,–,> 60000 nM
"O=C(NC1CC1)c1ccccc1Sc1ccc2c(/C=C/c3cc(CCCN4CCCC4)ccn3)n[nH]c2c1 [Compound I-120, N-cyclopropyl-2-({3-[(E)-2-{4-[3-(pyrrolidin-1-yl)propyl]pyridin-2-yl}vinyl]-1H-indazol-6-yl}thio)benzamide]",≤ 1 nM,1 to 10 nM,1 to 10 nM,–,> 60000 nM
"O=C(NC1CC1)c1ccccc1Sc1ccc2c(/C=C/c3cccc(CCCN4CCCC4)n3)n[nH]c2c1 [Compound I-121, N-cyclopropyl-2-({3-[(E)-2-{6-[3-(pyrrolidin-1-yl)propyl]pyridin-2-yl}vinyl]-1H-indazol-6-yl}thio)benzamide]",≤ 1 nM,1 to 10 nM,≤ 1 nM,–,6000 to 60000 nM
